Where two headings read alike, the source gives them in different places. Blank lines part the entries; values can stand above or below the molecule they belong to.
Columns and labels:
[1] = Population pharmacokinetics of oral AS and its metabolite DHA in pregnant and non-pregnant women (NONMEM parent-metabolite model); assay type: in vivo, human
Text: Women presenting for prenatal care at the clinic were screened for study eligibility if they were between 18 and 40 years of age and at less than 22 weeks gestation, determined by last menstrual period. Women confirmed by ultrasound to be between 8 to 21 weeks gestation (inclusive) were invited to be participants in the study. Women were asked to return between 22 to 26 weeks gestation for screening and enrollment; women not enrolled at 22 to 26 weeks were screened again at 32 to 36 weeks gestation. A cohort of non-pregnant female controls was also enrolled. At the time of enrollment, both the pregnant and non-pregnant subjects had asymptomatic Plasmodium falciparum parasitaemia, with a parasite density between 200 and 300,000 parasite/μL, were HIV seronegative, and were without anaemia (haematocrit >30%) or other major medical problems (e.g. chronic hypertension, diabetes, etc.). Plasmodium falciparum parasite density was assessed though Giemsa staining of thick and thin blood films; slide-positive infections were later PCR-confirmed using DNA extracted from dried blood spots [8].
Blood sampling schedule and sample handling were uniformly applied for pregnant, postpartum, and control subjects. Blood samples were collected in pre-chilled tubes containing potassium oxalate/sodium fluoride. Following collection, tubes were placed on wet ice; within 5 minutes of collection, samples were centrifuged. Immediately following centrifugation, plasma was removed from the cells and transferred into cryovials. The plasma samples were transferred to liquid nitrogen until they could be frozen at or below -80°C in a laboratory freezer; samples were later shipped on dry ice to the Clinical Pharmacokinetics Laboratory at the College of Pharmacy, University of Iowa, where they were stored at -80°C until drug analysis was performed.
The reconstituted extracts were chromatographed isocratically. Mass spectroscopy in positive ion mode was used to detect and quantify the compounds.
Nonlinear mixed effects model building was conducted using NONMEM software version 7 (ICON Development Solutions, Ellicott City, MD) [10] implemented on a Windows XP operating system (Microsoft Corporation, Seattle, WA) with a G95 Fortran compiler (Free Software Foundation, Boston, MA). Monte Carlo importance sampling expectation maximization with interaction (IMP INTER) estimation method was used to fit models. Pdx-Pop 4.0 (ICON Development Solutions, Ellicott City, MD) and Xpose version 4.1.0 (Uppsala University, Uppsala, Sweden) [11] were used in processing NONMEM 7 output. Plots were generated with TIBCO Spotfire S+ version 8.1 (TIBCO Software Inc., Palo Alto, CA) and R version 2.10.0 (Free Software Foundation, Boston, MA).
Simultaneous models were implemented using ADVAN 5.

[2] = weak acid; cited from earlier work
[3] = free acid form of AS; cited from earlier work
[4] = design: method as in McGready et al 5; conditions: pregnant women (2nd or 3rd trimester), adjusted for median weight 50 kg, ref McGready et al 5, cited from earlier work
[5] = design: method as in Teja-Isavadharm et al 30; conditions: oral AS, non-pregnant patients with falciparum malaria, non-compartmental, range 0.70 - 2.70 L/kg; ref Teja-Isavadharm et al 30; cited from earlier work
[6] = design: method as in Newton et al 31; conditions: oral AS, acute falciparum malaria patients, 95% CI 1.02 - 1.64; ref Newton et al 31; cited from earlier work
[7] = interindividual variability, final model

IIV - V2/F, variance (%CV), estimate ([1]; female, human, in vivo): 0.604 (77.7)
IIV - V2/F, variance, bootstrap mean (95% CI) ([1]; female, human, in vivo): 0.568 (0.253-0.942)
half-life ([1]; female, human, in vivo, po, 200 mg, AS elimination half-life): ~9.1 min
CL/F apparent clearance of AS, bootstrap mean (95% CI) ([1]; human, in vivo, po, 200 mg): 904 (788-1045) L/h
CL/F: apparent clearance of AS, estimate ([1]; human, in vivo, po, 200 mg): 895 L/h
SMILES: C[C@H]1[C@H](OC(=O)CCC(=O)O)O[C@@H]2O[C@@]3(C)CC[C@H]4[C@H](C)CC[C@@H]1[C@@]24OO3 [AS, artesunate]
pKa [2]: 4.6
Solubility of the free acid form [3]: 0.1682 mg/mL

RV - variance (residual variability), bootstrap mean (95% CI) ([1]; additive model for log-transformed plasma concentrations, 1000 bootstrap runs): 0.174 (0.129-0.226)
RV - variance (residual variability), estimate ([1]; additive model for log-transformed plasma concentrations, final model): 0.174
CLM/F apparent clearance of DHA, bootstrap mean (95% CI) ([1]; after 200 mg oral AS, 1000 bootstrap runs, value without the pregnancy covariate (non-pregnant)): 64.2 (55.1-75.2) L/h
DHA volume of distribution adjusted for the median weight of the pregnancy and control groups ([1]; after 200 mg oral AS, current analysis): 1.58 L/kg
CLM/F: apparent clearance of DHA, estimate ([1]; after 200 mg oral AS, final model NONMEM estimate, value without the pregnancy covariate (non-pregnant)): 64.0 L/h
Vd/F ([1]; female, human, plasma, po, 200 mg, after 200 mg oral AS, 1000 bootstrap runs, read-out: V3/F apparent volume of distribution of DHA, bootstrap mean (95% CI)): 92.1 L
Vd/F ([1]; female, human, plasma, po, 200 mg, after 200 mg oral AS, final model NONMEM estimate, read-out: V3/F: apparent volume of distribution of DHA, estimate): 91.4 L
half-life ([1]; female, human, plasma, po, 200 mg, after 200 mg oral AS, non-pregnant, read-out: DHA elimination half-life, non-pregnant subjects): 59 min
half-life ([1]; female, human, plasma, po, 200 mg, after 200 mg oral AS, pregnant, read-out: DHA elimination half-life, pregnant subjects): 45 min
IIV - CLM/F, variance, bootstrap mean (95% CI) ([1]; interindividual variability, 1000 bootstrap runs): 0.0711 (0.031-0.113)
IIV - CLM/F, variance (%CV), estimate [1, 7]: 0.0802 (28.3)
IIV - V3/F, variance (%CV), estimate [1, 7]: 0.0790 (28.1)
PREG on CLM/F, bootstrap mean (95% CI) ([1]; pregnant vs non-pregnant women, 1000 bootstrap runs): 0.427 (0.197-0.723)
PREG on CLM/F: factor of proportional increase in CLM/F associated with pregnancy, estimate ([1]; pregnant vs non-pregnant women, final model NONMEM estimate): 0.423
Pregnancy-associated trend towards increased DHA volume of distribution ([1]; pregnant vs non-pregnant, significant (p < 0.05) only in first forward addition step, not retained in final model): approximately 37%
DHA clearance in pregnant patients, estimate of the present analysis ([1]; pregnant, after 200 mg oral AS): 91 L/h
SMILES: C[C@H]1[C@@H](O)O[C@@H]2O[C@@]3(C)CC[C@H]4[C@H](C)CC[C@@H]1[C@@]24OO3 [DHA, dihydroartemisinin]
Oral DHA clearance ([4]; oral AS 4 mg/kg/day for three days with atovaquone and proguanil, 95% CI 60 - 117 L/h): 88.5 L/h
DHA volume of distribution ([4]; oral AS 4 mg/kg/day, 95% CI 57 - 406 L): 231.5 L
DHA volume of distribution [5]: 1.33 L/kg
DHA volume of distribution [6]: 1.33 L/kg

Reference: paper PMC3098207 (Malaria Journal, 2011)
